# According to US5958907A, “Pharmaceutical compositions and uses of inorganic pyrophosphates” (The University of Iowa Research Foundation, priority 1997, dated 1999):
# Read-outs that look alike come from different tables or passages of the source.
# Assays:
# CFTR [1] = conditions: cited from earlier work
# [2] = system: purinergic receptors in the airway epithelium; conditions: in vitro; cited from earlier work
# wild-type CFTR = target: T1, wild-type CFTR (Homo sapiens, UniProt P13569); assay: Single channel excised inside-out patch-clamp and burst analysis, wild-type CFTR; assay type: cell-based; conditions: for frequency of prolonged bursts compared with PPi / bursts of activity: PPi analogs at 5 mM; for bursts of activity: C127 cell patches with a single active channel
# T1 construct: excised inside-out patches with ATP and PKA
# [3] = cited from earlier work
# CFTR channel = CFTR channel (Homo sapiens, UniProt P13569); conditions: 5 mM PPi
# Experimental: Maximum likelihood analysis and kinetic modeling were performed as described (Winter, M. C. et al. (1994) Biophys. J. 66:1398-1403). Briefly, unfiltered single channel data were digitized on a microcomputer (Apple Macintosh, Apple Computer, Inc., Cupertine, Calif.) equipped with a multifunctional data acquisition board (NB-MIO-16) and LabVIEW 2 software (National Instruments, Austin, Tex.) at 5 kHz following filtering with an 8-pole Bessel filter (Frequency Devices Inc., Haverhill, Mass.) at a comer frequency of 1 kHz with subsequent digital filtering at 500 Hz. Previous work has shown that a linear three state model (C1 .rarw.→C2 .rarw.→O) best describes the kinetics of CFTR channel activity (Winter, M. C. et al. (1994) Biophys. J. 66:1398-1403). The Maple 5 symbolic algebra program (Waterloo Maple Software, Waterloo, Canada) was used to derive the open and closed time probability density functions for this model by solving the matrix equations in terms of the rate constants. The resulting equations were used in LabVIEW 2 to determine the set of rate constants which yielded the maximum likelihood for the open and closed times observed with different experimental interventions.
# It has been previously shown that the activity of single phosphorylated CFTR channels can be described by a linear three state model (Winter, M. C. et al. (1994) Biophys. J. 66:1398-1403), and this model has been used to describe how ATP, ADP, and inorganic phosphate alter the rate constants which describe transitions between states (Carson, M. R. et al., 1994 Biophys. J (In Press); Winter, M. C. et al., 1994 Biophys. J. 66:1398-1403). […] The rate constants (β1, β2, α1, and α2) describe the rate of transition between each state.
# CFTR Cl^- channel [4] = target: T2, CFTR Cl^- channel (Homo sapiens, UniProt P13569); conditions: external addition of 5 mM PPi, n=4
# Experimental: To determine if inorganic pyrophosphate (PPi) would alter CFTR Cl^- channel activity, 5 mM PPi was added to an excised, inside-out membrane patch containing many CFTR channels which had been phosphorylated by PKA.
# CFTR Cl^- channel [5] = target: T2, CFTR Cl^- channel
# human CFTR = conditions: [α-32P]8-N3ATP 30 αM, PPi in mM, 60 s UV irradiation; relative to control without PPi
# Experimental: Photolabeling of membrane-associated CFTR was performed as previously described (Travis, S. M. et al. (1993) J. Biol. Chem. 268:15336-15339). […] Membranes were prepared by differential centrifugation and resuspended in 20 mM HEPES, pH 7.5, 50 mM NaCl, 3 mM MgSO4, with 2 μg/ml each of leupeptin, aprotinin, and pepstatin. Membrane-associated CFTR was phosphorylated prior to photolabeling by incubation with 100 nM PKA and 0.1 mM ATP in buffer containing 10 m MgCl2 and 50 mM 1,4-piperazine diethane sulfonic acid, pH 6.8 for 20 min at 30° C., then diluted in 12 volumes buffer containing 20 mM tris(hydroxymethyl)aminomethane, pH 7.5, 0.2 mM EGTA and 1 μM calyculin A. Membranes were collected by centrifugation and resuspended at a concentration of 2.5 mg protein/ml in the same buffer.
# Photolabeling was performed by preincubating membranes (50 μg membrane protein/sample) on ice with [α-^32 P]8-N3ATP (30 αM, 6-12 Ci/mmol) and PPi (in mM). After 60 s UV irradiation, CFTR was solubilized and immunoprecipitated as described (Travis, S. M. et al. (1993) J. Biol. Chem. 268:15336-15339) using antibodies raised against the R domain (M13-1, 0.3 μg/sample) and against the C terminus (M1-4, 10 μg/sample). Immunocomplexes were analyzed by SDS-PAGE and incorporation of [α-^32 P]8-N3ATP was quantitated with an AMBIS radioanalytic imaging system (AMBIS Systems, Inc., San Diego, Calif.).
# CFTR-ΔF508 = conditions: 5 mM PPi, 75 nM PKA, 0.3 mM ATP
# [6] = target: endogenous CFTR in the apical membrane of T-84 intestinal epithelial monolayers (Homo sapiens, UniProt P13569)
# CFTR [7] = conditions: artificial lipid bilayers; cited from earlier work
# sodium channels = conditions: aerosolized, initial results; cited from earlier work
# Sequence of endogenous CFTR in the apical membrane of T-84 intestinal epithelial monolayers (P13569 whole entry): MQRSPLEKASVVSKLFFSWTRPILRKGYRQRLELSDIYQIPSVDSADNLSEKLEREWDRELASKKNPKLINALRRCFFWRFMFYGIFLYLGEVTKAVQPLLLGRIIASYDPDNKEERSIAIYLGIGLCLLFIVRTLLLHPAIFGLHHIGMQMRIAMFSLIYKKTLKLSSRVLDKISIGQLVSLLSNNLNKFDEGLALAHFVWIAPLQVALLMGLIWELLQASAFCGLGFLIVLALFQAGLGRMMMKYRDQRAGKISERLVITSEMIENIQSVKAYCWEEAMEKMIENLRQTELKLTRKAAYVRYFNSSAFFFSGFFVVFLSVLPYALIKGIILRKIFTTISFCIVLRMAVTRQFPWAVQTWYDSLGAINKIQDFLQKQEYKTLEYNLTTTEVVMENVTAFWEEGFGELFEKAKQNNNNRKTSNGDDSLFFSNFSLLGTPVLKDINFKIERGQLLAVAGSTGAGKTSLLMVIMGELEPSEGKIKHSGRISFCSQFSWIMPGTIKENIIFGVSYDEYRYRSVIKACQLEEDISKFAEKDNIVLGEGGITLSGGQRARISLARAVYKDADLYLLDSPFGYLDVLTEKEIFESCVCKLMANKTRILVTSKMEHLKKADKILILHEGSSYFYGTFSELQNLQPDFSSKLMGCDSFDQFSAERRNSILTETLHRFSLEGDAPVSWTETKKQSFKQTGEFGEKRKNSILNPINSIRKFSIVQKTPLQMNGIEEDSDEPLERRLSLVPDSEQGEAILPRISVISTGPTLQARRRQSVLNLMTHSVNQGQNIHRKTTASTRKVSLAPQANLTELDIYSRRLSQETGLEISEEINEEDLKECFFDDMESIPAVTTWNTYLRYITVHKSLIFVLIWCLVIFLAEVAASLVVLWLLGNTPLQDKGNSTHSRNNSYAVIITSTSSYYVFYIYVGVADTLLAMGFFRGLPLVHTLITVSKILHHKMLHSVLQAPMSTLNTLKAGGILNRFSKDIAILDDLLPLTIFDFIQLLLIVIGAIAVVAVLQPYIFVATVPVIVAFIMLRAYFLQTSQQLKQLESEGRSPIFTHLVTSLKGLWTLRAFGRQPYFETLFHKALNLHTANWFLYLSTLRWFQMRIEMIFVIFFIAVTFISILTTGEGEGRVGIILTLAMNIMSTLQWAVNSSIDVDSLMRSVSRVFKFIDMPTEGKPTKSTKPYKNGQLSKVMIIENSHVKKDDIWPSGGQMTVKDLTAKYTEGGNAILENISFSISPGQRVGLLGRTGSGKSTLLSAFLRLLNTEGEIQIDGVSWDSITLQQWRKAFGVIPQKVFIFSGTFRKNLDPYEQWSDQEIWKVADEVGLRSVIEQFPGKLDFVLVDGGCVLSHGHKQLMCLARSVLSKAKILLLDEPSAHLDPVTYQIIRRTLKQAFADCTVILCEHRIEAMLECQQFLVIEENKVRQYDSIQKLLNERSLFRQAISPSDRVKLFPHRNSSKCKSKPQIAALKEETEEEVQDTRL
# T1 sequence (P13569 whole entry): as above
# Sequence of CFTR channel (P13569 whole entry): as above
# T2 sequence (P13569 whole entry): as above
smiles,measurement,setting,value
Nc1ncnc2c1ncn2[C@@H]1O[C@H](COP(=O)(O)OP(=O)(O)NP(=O)(O)O)[C@@H](O)[C@H]1O [AMP-PNP],binding affinity relative to ATP,CFTR [1],one twentieth
"Nc1ncnc2c1ncn2[C@@H]1O[C@H](COP(=O)(O)OP(=O)(O)OP(=O)(O)O)[C@@H](O)[C@H]1O [ATP, Adenosine 5'-triphosphate]",chloride secretion,[2],can stimulate chloride secretion
"O=P(O)(O)CP(=O)(O)O [PCP, Methylenediphosphonic acid]",frequency of prolonged bursts compared with PPi,"wild-type CFTR; 75 nM PKA, 0.3 mM ATP",less frequent
same,bursts of activity,"wild-type CFTR; 75 nM PKA, 0.3 mM ATP",prolonged bursts of activity
same,effects on Po and average burst duration (channel activity),wild-type CFTR; nonhydrolyzable PPi analogs,did not achieve statistical significance
same,maintenance of calcaemia after initial treatment,[3]; daily oral administration of 1600 mg,calcaemia can be maintained
same,efficacy in tumor-induced bone disease,[3]; one slow infusion of 600 mg,shown efficacy
"O=P([O-])([O-])OP(=O)([O-])[O-].[Na+].[Na+].[Na+].[Na+] [PPi, Sodium pyrophosphate]",duration of the long closed states between bursts of activity,"wild-type CFTR; 5 mM PPi, 0.3 mM ATP, 75 nM PKA",appeared to decrease the duration of the long closed states
same,open state probability (Po),"wild-type CFTR; 5 mM PPi, 0.3 mM ATP, 75 nM PKA, before: 0.39±0.021, n=8, p<0.001",0.81±0.03
same,mean burst duration,"wild-type CFTR; 5 mM PPi, 0.3 mM ATP, 75 nM PKA, before: 175±6 ms, n=8, p<0.001",1568 ± 219 ms
same,single channel current amplitude,"wild-type CFTR; after addition of 5 mM PPi, 0.3 mM ATP, 75 nM PKA, before: 0.90±0.05, n=8, p=0.812",0.91±0.02 pA
same,decrease of rate constant α2,"CFTR channel; 0.3 mM ATP, 75 nM PKA",37%
same,rate constant β1 (transition from long closed state C1 to bursting state),"CFTR channel; 0.3 mM ATP, 75 nM PKA",increased β1
same,rate constant β2,"CFTR channel; 0.3 mM ATP, 75 nM PKA",did not alter β2
same,rate constant α1 (rate of leaving the bursting mode),"CFTR channel; 0.3 mM ATP, 75 nM PKA, four single-channel patches",six-fold decrease
same,change in Po within a burst,"CFTR channel; n=4, not significantly different",< 5%
same,whole-cell currents,CFTR Cl^- channel [4],did not alter currents
same,Cl- current,"CFTR Cl^- channel [5]; 5 mM PPi in the presence of 0.3 mM ATP, channels phosphorylated by PKA, cytosolic side",reversible increase
same,Cl- current,CFTR Cl^- channel [5]; PPi in the absence of ATP,did not stimulate current
same,EC50,"CFTR Cl^- channel [5]; read-out: apparent EC50 of stimulation of Cl- current, in the presence of ATP, PKA-phosphorylated channels",~500 µM
same,8-N3 ATP labeling of CFTR,human CFTR,concentration-dependent increase
same,Po,"CFTR-ΔF508; before: 0.07±0.01, n=3",0.21±0.022
same,average burst duration,"CFTR-ΔF508; before: 125±19 ms, n=3",1023 ± 330 ms
same,increase of Po,CFTR-ΔF508; n=3,three-fold
same,increase of average burst duration,CFTR-ΔF508; n=3,eight-fold
same,stimulation of ΔF508 activity,CFTR-ΔF508; n=5,three-fold
same,apical membrane Cl- current,"[6]; 1 or 5 mM PPi added to basolateral solution after cAMP, 1 mM ATP",further increase in current
same,apical membrane Cl- current,[6]; 1 or 5 mM PPi in the absence of cAMP,did not increase current above baseline levels
same,time for current to decrease to baseline levels after removal of cAMP,[6]; in the continued presence of PPi,≤ 3 min
same,duration of bursts,CFTR [7],prolonged the duration of bursts
O=c1ccn([C@@H]2O[C@H](COP(=O)(O)OP(=O)(O)OP(=O)(O)O)[C@@H](O)[C@H]2O)c(=O)[nH]1 [UTP],chloride secretion,[2],can stimulate chloride secretion
N=C(N)NC(=O)c1nc(Cl)c(N)nc1N [amiloride],"rate of disease progression, as measured by lung function tests",sodium channels,slight change in the rate of disease progression
same,safety,sodium channels,safe
"CC(O)(P(=O)(O)O)P(=O)(O)O [etidronate, 1-hydroxyethylidenebisphosphonic acid, reference compound]",frequency of prolonged bursts compared with PPi,"wild-type CFTR; 75 nM PKA, 0.3 mM ATP",less frequent
same,bursts of activity,"wild-type CFTR; 75 nM PKA, 0.3 mM ATP",prolonged bursts of activity
same,efficacy in tumor-induced bone disease,[3]; 500 mg/day for 3 days,shown efficacy
